In patent US20260258050A1, “IMMUNOMODULATOR” (HITGEN INC., priority 2023, published 2026):

Target: T1, Human IL-17A (Homo sapiens, UniProt Q16552)
T1 sequence (Q16552 20-155 limits assumed): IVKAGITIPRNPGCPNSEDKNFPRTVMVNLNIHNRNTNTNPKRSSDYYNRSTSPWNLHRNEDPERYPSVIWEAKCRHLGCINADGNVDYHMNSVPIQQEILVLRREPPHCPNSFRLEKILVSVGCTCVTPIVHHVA
Test: IL-17A enzyme-linked immunosorbent assay (competitive ELISA, IL-17A/IL-17Ra receptor-ligand binding)
Parameters: purchased Sino Biological Inc. 12047-H07B
Details: human IL-17A coated plate, human IL-17Ra, read-out: IC50, inhibitory activity of compounds on human IL-17A
In short: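 Competitive ELISA with plates coated with human IL-17A at 0.2 μg/ml, blocked with 5% skim milk. Compound pre-incubated with IL-17A 10 min at 25 °C, then 16 nM IL-17Ra stock added for 30 min. Bound receptor detected by anti-Fc HRP/TMB, A450. IC50 from variable-slope fit of blank-corrected residual activity.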

SMILES	IC50
Cc1[nH]nc2c1-c1cc(F)c(NC(=O)[C@@H](NC(=O)c3ccnn3CC3CCC3)C(C3CC3)C3CC3)cc1COCC2 [compound 60]	≤ 0.05 µM
CSCCn1nccc1C(=O)N[C@H](C(=O)Nc1cc2c(cc1F)-c1c(n[nH]c1C)CCOC2)C(C1CC1)C1CC1 [compound 61]	≤ 0.05 µM
CCCn1nccc1C(=O)N[C@H](C(=O)Nc1cc2c(cc1F)-c1c(n[nH]c1C)CCOC2)C(C1CC1)C1CC1 [compound 62]	≤ 0.05 µM
Cc1[nH]nc2c1-c1cc(F)c(NC(=O)[C@@H](NC(=O)c3ccnn3CCC(F)F)C(C3CC3)C3CC3)cc1COCC2 [compound 65]	≤ 0.05 µM
[2H]C([2H])(C1CC1)n1nccc1C(=O)N[C@H](C(=O)Nc1cc2c(cc1F)-c1c(n[nH]c1C)CCOC2)C(C1CC1)C1CC1 [compound 76]	≤ 0.05 µM
Cc1[nH]nc2c1-c1cc(F)c(NC(=O)[C@@H](NC(=O)c3ccnn3CCC(O)C(F)(F)F)C(C3CC3)C3CC3)cc1COCC2 (stereo partly drawn) [compound 81]	≤ 0.05 µM
Cc1[nH]nc2c1-c1cc(F)c(NC(=O)[C@@H](NC(=O)c3ccnn3CCCC(F)(F)F)C(C3CC3)C3CC3)cc1COCC2 [compound 84]	≤ 0.05 µM
Cc1[nH]nc2c1-c1cc(F)c(NC(=O)[C@@H](NC(=O)c3ccnn3CCCF)C(C3CC3)C3CC3)cc1COCC2 [compound 86]	≤ 0.05 µM
Cc1[nH]nc2c1-c1cc(F)c(NC(=O)[C@@H](NC(=O)c3ccnn3CC(C)(F)F)C(C3CC3)C3CC3)cc1COCC2 [compound 87]	≤ 0.05 µM
Cc1[nH]nc2c1-c1cc(F)c(NC(=O)[C@@H](NC(=O)c3ccnn3CCC(F)(F)F)C(C3CC3)C3CC3)cc1COCC2 [compound 88]	0.05 to 0.15 µM
[2H]C([2H])([2H])C([2H])(n1nccc1C(=O)N[C@H](C(=O)Nc1cc2c(cc1F)-c1c(n[nH]c1C)CCOC2)C(C1CC1)C1CC1)C([2H])([2H])[2H] [compound 89]	≤ 0.05 µM
[2H]C([2H])([2H])C([2H])([2H])n1nccc1C(=O)N[C@H](C(=O)Nc1cc2c(cc1F)-c1c(n[nH]c1C)CCOC2)C(C1CC1)C1CC1 [compound 90]	≤ 0.05 µM
Cc1[nH]nc2c1-c1cc(F)c(NC(=O)[C@@H](NC(=O)c3ccnn3CCOC(C)C)C(C3CC3)C3CC3)cc1COCC2 [compound 98]	≤ 0.05 µM
COCC(COC)n1nccc1C(=O)N[C@H](C(=O)Nc1cc2c(cc1F)-c1c(n[nH]c1C)CCOC2)C(C1CC1)C1CC1 [compound 99]	0.05 to 0.15 µM
CCOCCn1nccc1C(=O)N[C@H](C(=O)Nc1cc2c(cc1F)-c1c(n[nH]c1C)CCOC2)C(C1CC1)C1CC1 [compound 100]	≤ 0.05 µM
Cc1[nH]nc2c1-c1cc(F)c(NC(=O)[C@@H](NC(=O)c3ccnn3C[C@@H]3C[C@H]3F)C(C3CC3)C3CC3)cc1COCC2 [compound 101]	≤ 0.05 µM
Cc1[nH]nc2c1-c1cc(F)c(NC(=O)[C@@H](NC(=O)c3ccnn3CCOC3CC3)C(C3CC3)C3CC3)cc1COCC2 [compound 102]	≤ 0.05 µM
Cc1[nH]nc2c1-c1cc(F)c(NC(=O)[C@@H](NC(=O)c3ccnn3CCOCC(F)(F)F)C(C3CC3)C3CC3)cc1COCC2 [compound 104]	≤ 0.05 µM
Cc1[nH]nc2c1-c1cc(F)c(NC(=O)[C@@H](NC(=O)c3cnnn3CCOC(F)F)C(C3CC3)C3CC3)cc1COCC2 [compound 108]	≤ 0.05 µM
Cc1[nH]nc2c1-c1cc(F)c(NC(=O)[C@@H](NC(=O)c3ccnn3CCOC(C)(C)C)C(C3CC3)C3CC3)cc1COCC2 [compound 113]	≤ 0.05 µM
Cc1[nH]nc2c1-c1cc(F)c(NC(=O)[C@@H](NC(=O)c3ccnn3CC3(C#N)CC3)C(C3CC3)C3CC3)cc1COCC2 [compound 114]	≤ 0.05 µM
Cc1[nH]nc2c1-c1cc(F)c(NC(=O)[C@@H](NC(=O)c3ccnn3CC3COC3)C(C3CC3)C3CC3)cc1COCC2 [compound 115]	≤ 0.05 µM
Cc1[nH]nc2c1-c1cnc(NC(=O)[C@@H](NC(=O)c3ccnn3CCCF)C(C3CC3)C3CC3)cc1COCC2 [compound 124]	≤ 0.05 µM
Cc1[nH]nc2c1-c1cc(F)c(NC(=O)[C@@H](NC(=O)c3ccnn3C(C)C)C(C3CC3)C3CC3)cc1CN(CC1CC1)CC2 [compound 166]	≤ 0.05 µM
Cc1[nH]nc2c1-c1cc(F)c(NC(=O)[C@@H](NC(=O)c3ccnn3C(C)C)C(C3CC3)C3CC3)cc1CN(C1CCOCC1)C(=O)C2 [compound 167]	≤ 0.05 µM
Cc1[nH]nc2c1-c1cc(F)c(NC(=O)[C@@H](NC(=O)c3ccnn3C(C)C)C(C3CC3)C3CC3)cc1CN(C1CCC(F)(F)CC1)C(=O)C2 [compound 168]	≤ 0.05 µM
Cc1[nH]nc2c1-c1cc(F)c(NC(=O)[C@@H](NC(=O)c3ccnn3C(C)C)C(C3CC3)C3CC3)cc1CN(C1CC(F)(F)C1)C(=O)C2 [compound 169]	≤ 0.05 µM
Cc1[nH]nc2c1-c1cc(F)c(NC(=O)[C@@H](NC(=O)c3ccnn3C(C)C)C(C3CC3)C3CC3)cc1CN(C1CCC1)C(=O)C2 [compound 170]	≤ 0.05 µM
Cc1[nH]nc2c1-c1cc(F)c(NC(=O)[C@@H](NC(=O)c3ccnn3C(C)C)C(C3CC3)C3CC3)cc1CN(C1CCOCC1)CC2 [compound 174]	≤ 0.05 µM
Cc1[nH]nc2c1-c1cc(F)c(NC(=O)[C@@H](NC(=O)c3ccnn3C(C)C)C(C3CC3)C3CC3)cc1CN(C1CC(F)(F)C1)CC2 [compound 176]	≤ 0.05 µM

Further lines, results first:

IC50	SMILES
≤ 0.05 µM	Cc1[nH]nc2c1-c1cc(F)c(NC(=O)[C@@H](NC(=O)c3ccnn3C(C)C)C(C3CC3)C3CC3)cc1CN(C(C)C(F)(F)F)C(=O)C2 (mixture of isomers) [compound 173]
≤ 0.05 µM	Cc1[nH]nc2c1-c1cc(F)c(NC(=O)[C@@H](NC(=O)c3ccnn3C(C)C3CC3)C(C3CC3)C3CC3)cc1COCC2 (single isomer, unassigned) [compound 41a]
≤ 0.05 µM	Cc1[nH]nc2c1-c1cc(F)c(NC(=O)[C@@H](NC(=O)c3ccnn3C(C)C3CC3)C(C3CC3)C3CC3)cc1COCC2 (single isomer, unassigned) [compound 41b]
≤ 0.05 µM	Cc1[nH]nc2c1-c1cc(F)c(NC(=O)[C@@H](NC(=O)c3ccnn3C(C)CF)C(C3CC3)C3CC3)cc1COCC2 (single isomer, unassigned) [compound 42a]
≤ 0.05 µM	Cc1[nH]nc2c1-c1cc(F)c(NC(=O)[C@@H](NC(=O)c3ccnn3C(C)CF)C(C3CC3)C3CC3)cc1COCC2 (single isomer, unassigned) [compound 42b]
≤ 0.05 µM	Cc1[nH]nc2c1-c1cc(F)c(NC(=O)[C@@H](NC(=O)c3ccnn3C(C)C)C(C3CC3)C3CC3)cc1CN(C(C)C(F)(F)F)C(=O)C2 (single isomer, unassigned) [compound 186a]
≤ 0.05 µM	Cc1[nH]nc2c1-c1cnc(NC(=O)[C@@H](NC(=O)c3ccnn3C(C)C3CC3)C(C3CC3)C3CC3)cc1COCC2 (single isomer, unassigned) [compound 188a]
≤ 0.05 µM	Cc1[nH]nc2c1-c1cnc(NC(=O)[C@@H](NC(=O)c3ccnn3C(C)C3CC3)C(C3CC3)C3CC3)cc1COCC2 (single isomer, unassigned) [compound 188b]
≤ 0.05 µM	Cc1[nH]nc2c1-c1cnc(NC(=O)[C@@H](NC(=O)c3ccnn3C(C)CF)C(C3CC3)C3CC3)cc1COCC2 (single isomer, unassigned) [compound 189a]
≤ 0.05 µM	Cc1[nH]nc2c1-c1cnc(NC(=O)[C@@H](NC(=O)c3ccnn3C(C)CF)C(C3CC3)C3CC3)cc1COCC2 (single isomer, unassigned) [compound 189b]
≤ 0.05 µM	Cc1[nH]nc2c1-c1ccc(NC(=O)[C@@H](NC(=O)c3ccnn3C)C(C3CC3)C3CC3)cc1COCC2 [compound 2]
≤ 0.05 µM	Cc1[nH]nc2c1-c1cc(F)c(NC(=O)[C@@H](NC(=O)c3ccnn3C(C)C)C(C3CC3)C3CC3)cc1COCC2 [compound 15]
≤ 0.05 µM	CCn1nccc1C(=O)N[C@H](C(=O)Nc1cc2c(cc1F)-c1c(n[nH]c1C)CCOC2)C(C1CC1)C1CC1 [compound 16]
≤ 0.05 µM	Cc1[nH]nc2c1-c1cc(F)c(NC(=O)[C@@H](NC(=O)c3ccnn3C)C(C3CC3)C3CC3)cc1COCC2 [compound 17]
≤ 0.05 µM	Cc1[nH]nc2c1-c1ccc(NC(=O)[C@@H](NC(=O)c3ccnn3C(C)C)C(C3CC3)C3CC3)cc1CN(C)C(=O)C2 [compound 22]
≤ 0.05 µM	CCn1nccc1C(=O)N[C@H](C(=O)Nc1ccc2c(c1)CN(C)C(=O)Cc1n[nH]c(C)c1-2)C(C1CC1)C1CC1 [compound 23]
≤ 0.05 µM	Cc1[nH]nc2c1-c1ccc(NC(=O)[C@@H](NC(=O)c3ccnn3C(C)C)C(C3CC3)C3CC3)cc1CNC(=O)C2 [compound 27]
≤ 0.05 µM	CCn1nccc1C(=O)N[C@H](C(=O)Nc1ccc2c(c1)CNC(=O)Cc1n[nH]c(C)c1-2)C(C1CC1)C1CC1 [compound 28]
≤ 0.05 µM	CCn1nccc1C(=O)N[C@H](C(=O)Nc1cc2c(cc1F)-c1c(n[nH]c1C)CCOC2)[C@H]1CC[C@H](C)CC1 [compound 46]
≤ 0.05 µM	Cc1[nH]nc2c1-c1cc(F)c(NC(=O)[C@@H](NC(=O)c3ccnn3C(C)C)C3CCCCC3)cc1COCC2 [compound 48]
≤ 0.05 µM	[2H]C([2H])([2H])C([2H])(n1nccc1C(=O)N[C@H](C(=O)Nc1ccc2c(c1)COCCc1n[nH]c(C)c1-2)C(C1CC1)C1CC1)C([2H])([2H])[2H] [compound 52]
≤ 0.05 µM	[2H]C([2H])([2H])C([2H])(n1nccc1C(=O)N[C@H](C(=O)Nc1cc2c(cn1)-c1c(n[nH]c1C)CCOC2)C(C1CC1)C1CC1)C([2H])([2H])[2H] [compound 54]
≤ 0.05 µM	COCCCn1nccc1C(=O)N[C@H](C(=O)Nc1cc2c(cc1F)-c1c(n[nH]c1C)CCOC2)C(C1CC1)C1CC1 [compound 58]
≤ 0.05 µM	Cc1[nH]nc2c1-c1cc(F)c(NC(=O)[C@@H](NC(=O)c3ccnn3CC3CC3)C(C3CC3)C3CC3)cc1COCC2 [compound 59]
